Legend:
[1] = Retrospective cohort study: skeletal muscle area (SMA) at L3 from serial abdominal CT scans; format: in vivo, human; details: for Follow-up skeletal muscle area: Median (IQR) at second CT scan, rifaximin N = 63 (with lactulose), lactulose alone N = 79; for median change in SMA: between first and second abdominal CT scan (3-9 months apart), patients with cirrhosis and HE, rifaximin 550 mg twice daily orally with lactulose vs lactulose monotherapy
From the text: (§1) This study is a single-centre retrospective cohort study of patients treated with lactulose or rifaximin with lactulose, under the care of the liver transplant service in Melbourne, Australia, between 2009 and 2022. The primary outcome measure was a change in muscle mass over time between the rifaximin versus non-rifaximin treated cohort. Secondary outcomes included. Clostridium difficile infection and mortality.
(§2) All adult patients (age >18 years) with cirrhosis and documented clinically apparent hepatic encephalopathy (HE) known to the Victorian liver transplant service were considered for analysis. Inclusion criteria required patients to have had serial abdominal CT scans at least 3 months and at most 9 months apart during their time on the liver transplant waitlist to allow for comparison of muscle mass over time. Rifaximin became widely available as a treatment of HE on the Pharmaceutical Benefits Scheme in Australia in January 2014. Therefore, patients on lactulose monotherapy (January 2009 to December 2013) were compared to those receiving rifaximin with lactulose (January 2014 to July 2022). Patients were orally administered 550 mg of rifaximin (alpha) twice daily. Lactulose treatment for HE was under standard conditions, i.e. lactulose administration in syrup form at a dose of 15 to 30 mL two to four times a day to aim for two semisoft stools per day. Patients otherwise received standard of care management of cirrhosis including nutritional advice from an experienced liver dietitian.
Muscle mass data was calculated from CT scans performed at two time-points in the patient journey to determine progress and change of outcomes. The first time-point for data collection, including for demographics and blood parameters, was time of first CT. The second time-point for data collection was collected between three to nine months following the first time point when the follow up CT was performed.
SMA was measured using the cross-sectional area of the abdominal muscles at the third lumbar vertebrae (L3) using CoreSlicer (^©2018), a web-based program for accurate measurement of body composition, verified for this purpose (Mullie & Afilalo "CoreSlicer: a web toolkit for analytic morphomics" BMC Med. Imaging (2019), 19(1): 15).
Statistical analysis was performed using R version 4.1.1. Subgroups were compared by χ^2 test for categorical variables and Student's t-test or Wilcoxon rank sum test for parametric and non-parametric continuous variables, respectively. Linear regression models (analysis of covariance) were used to assess the impact of clinical variables on muscle endpoints. […]
Averages were expressed as mean ± standard deviation for normally distributed variables, and as medians ± IQR for non-normally distributed variables.

[2] = Retrospective cohort study: clinical outcomes (transplant outcome, mortality, Clostridium difficile infection); format: in vivo, human; details: for Transplant outcome: Died on list: died awaiting transplantation; for episodes of Clostridium difficile infection: during study follow-up; for Transplant outcome: Delisted / Transplant outcome: Rejected / Transplant outcome: Transplanted: liver transplant waitlist patients with cirrhosis and HE; for median time to death from listing: patients who died awaiting transplant; for Median time-to-transplant: transplanted patients
From the text: as §1, §2
Included data comprised baseline demographics (age, gender, aetiology of liver disease, body mass index (BMI)); disease assessment at workup (Sodium Model of End-Stage Liver Disease (NaMELD)), Child-Pugh-Turcotte (CTP) score; sarcopenia assessment (skeletal muscle area (SMA, cm^2)) from single slice CT scan, sepsis (hospitalisation data for infective complications, episodes of spontaneous bacterial peritonitis); rifaximin complications (Clostridium difficile infections); and mortality and transplantation outcome data.
Patients were followed up until: end outcomes occurred; delisting from service; rejected prior to formal transplant workup; death prior to transplant; or liver transplantation.

| SMILES | Follow-up skeletal muscle area [1] | median change in SMA [1] | Transplant outcome: Died on list [2] | Transplant outcome: Died on list ([2]; listed as lactulose) | episodes of Clostridium difficile infection [2] | Transplant outcome: Delisted [2] | Transplant outcome: Rejected [2] | Transplant outcome: Transplanted [2] | median time to death from listing [2] [days] | Median time-to-transplant [2] [days] |
| --- | --- | --- | --- | --- | --- | --- | --- | --- | --- | --- |
| OC[C@H]1O[C@@H](O[C@@H]2[C@@H](CO)OC(O)(CO)[C@H]2O)[C@H](O)[C@@H](O)[C@H]1O (mixture of isomers) [Lactulose alone, Lactulose] | 159 (137, 174) cm^2 | -6.9 cm^2 | 5 (6.5%) n (%) | 5 (6.5 %) n (%) | none | 15 (19%) n (%) | 0 (0%) n (%) | 57 (74%) n (%) | 282 | 312.5 |
| CO[C@H]1/C=C/O[C@@]2(C)Oc3c(C)c(O)c4c(O)c(c5c(nc6cc(C)ccn65)c4c3C2=O)NC(=O)/C(C)=C\C=C\[C@H](C)[C@H](O)[C@@H](C)[C@@H](O)[C@@H](C)[C@H](OC(C)=O)[C@@H]1C [Rifaximin, 4-deoxy-4'-methylpyrido[1',2'-1,2]imidazo-[5,4-c] rifamycin SV] | 162 (134, 190) cm^2 | +0.74 cm^2 | 2 (3.4%) n (%) |  | one | 4 (6.9%) n (%) | 1 (1.7%) n (%) | 51 (88%) n (%) | 265.5 | 353 |

Reference: patent publication EP4613269A1, “RIFAXIMIN FOR USE IN TREATING SARCOPENIA IN PATIENTS WITH LIVER DISEASE” (priority 2024, dated 2025)
